Data as given in ChEMBL document CHEMBL5143523, “Construction and activity evaluation of novel benzodioxane derivatives as dual-target antifungal inhibitors” (Eur J Med Chem, 2022).
Values after ≈ are worked out from the molar mass of the structure shown. Active and inactive are the calls of the source. No cut-off for these calls is given here.

Tests used:
[1] = tested on: Candida albicans; assay: Antifungal activity against Candida albicans ATCC SC5314 assessed as change in eburicol level at 4 ug/ml incubated for 48 hrs by LC-MS analysis (reference value: 1.4%); type: functional; conditions: dose 4 µg/ml
[2] = tested on: Candida albicans; assay: Induction of morphological changes in Candida albicans assessed as disappearance of endoplasmic reticulum at 4 ug/ml measured after 72 hrs by TEM analysis; type: functional, organism-based; conditions: dose 4.0 µg/ml
[3] = Toxicity in mouse infected with Candida albicans ATCC SC5314 assessed as pathological changes in kidney at 4 mg/kg, ip administered ever other day for 12 days by hematoxylin and eosin staining based histopathological analysis; type: organism-based; conditions: in vivo, 288 h, time 12 day
[4] = Toxicity in mouse infected with Candida albicans ATCC SC5314 assessed as pathological changes in lung at 4 mg/kg, ip administered ever other day for 12 days by hematoxylin and eosin staining based histopathological analysis; type: organism-based; conditions: in vivo, 288 h, time 12 day
[5] = tested on: Candida albicans; assay: Induction of morphological changes in Candida albicans assessed as enlargement of nucleus at 4 ug/ml measured after 72 hrs by TEM analysis; type: functional, organism-based; conditions: dose 4.0 µg/ml
[6] = tested on: Candida albicans; assay: Antifungal activity against fluconazole resistant Candida albicans strain 901 assessed as decrease in fungal cell density at 4 ug/ml by fluorescence microscopy; type: functional, organism-based; conditions: dose 4.0 µg/ml
[7] = tested on: Candida tropicalis; assay: Antifungal activity against Candida tropicalis ATCC 1369 assessed as fungal growth inhibition measured after 72 hrs by CLSI protocol based liquid medium dilution method; type: functional
[8] = tested on: Mus musculus; assay: In vivo antifungal activity against Candida albicans ATCC SC5314 infected mouse model assessed as regular arrangement of intercellular space at 4 mg/kg, ip administered ever other day for 12 days by hematoxyin-eosin staining based microscopic analysis; type: functional, organism-based; conditions: time 12.0 day
[9] = tested on: Pichia kudriavzevii; assay: Antifungal activity against Candida krusei ATCC 6258 assessed as fungal growth inhibition measured after 72 hrs by CLSI protocol based liquid medium dilution method; type: functional
[10] = tested on: Candida albicans; assay: Induction of morphological changes in Candida albicans assessed as structural damage in fungal cell membrane at 4 ug/ml measured after 48 hrs by TEM analysis; type: functional, organism-based; conditions: dose 4.0 µg/ml
[11] = tested on: Candida albicans; assay: Induction of apoptosis in Candida albicans ATCC SC5314 cells assessed as early apoptotic cells at 8 ug/ml incubated for 72 hrs by Annexin V-FITC/PI staining based flow cytometry method (reference value: 0.56%); type: functional; conditions: dose 8 µg/ml
[12] = Toxicity in mouse infected with Candida albicans ATCC SC5314 assessed as pathological changes in heart at 4 mg/kg, ip administered ever other day for 12 days by hematoxylin and eosin staining based histopathological analysis; type: organism-based; conditions: in vivo, 288 h, time 12 day
[13] = Nephrotoxicity in mouse infected with Candida albicans ATCC SC5314 assessed as change in plasma BUN level at 4 mg/kg, ip administered ever other day for 12 days; type: toxicity, organism-based; conditions: in vivo, 288 h, time 12 day
[14] = tested on: Candida albicans; assay: Antifungal activity against Candida albicans ATCC SC5314 assessed as change in unknown sterol level at 4 ug/ml incubated for 48 hrs by LC-MS analysis (reference value: 4.3%); type: functional; conditions: dose 4 µg/ml
[15] = tested on: Mus musculus; assay: In vivo antifungal activity against Candida albicans ATCC SC5314 infected mouse assessed as regular arrangement of endothelial tissue at 4 mg/kg, ip administered ever other day for 12 days by hematoxyin-eosin staining based microscopic analysis; type: functional, organism-based; conditions: time 12.0 day
[16] = tested on: Candida albicans; assay: Induction of morphological changes in Candida albicans assessed as decrease in osmotic pressure of cells at 4 ug/ml measured after 72 hrs by TEM analysis; type: functional, organism-based; conditions: dose 4.0 µg/ml
[17] = Hepatotoxicity in mouse infected with Candida albicans ATCC SC5314 assessed as change in plasma ALT level at 4 mg/kg, ip administered ever other day for 12 days; type: toxicity, organism-based; conditions: in vivo, 288 h, time 12 day
[18] = Toxicity in mouse infected with Candida albicans ATCC SC5314 assessed as pathological changes in spleen at 4 mg/kg, ip administered ever other day for 12 days by hematoxylin and eosin staining based histopathological analysis; type: organism-based; conditions: in vivo, 288 h, time 12 day
[19] = tested on: Nakaseomyces glabratus; assay: Antifungal activity against Candida glabrata ATCC 0001 assessed as fungal growth inhibition measured after 72 hrs by CLSI protocol based liquid medium dilution method; type: functional
[20] = tested on: Candida albicans; assay: Antifungal activity against Candida albicans ATCC SC5314 assessed as change in squalene level at 4 ug/ml incubated for 48 hrs by LC-MS analysis; type: functional; conditions: dose 4 µg/ml
[21] = tested on: Mus musculus; assay: In vivo antifungal activity against Candida albicans ATCC SC5314 infected mouse model assessed as disappearance of pathogenic fungi at 4 mg/kg, ip administered ever other day for 12 days by hematoxyin-eosin staining based microscopic analysis; type: functional, organism-based; conditions: time 12.0 day
[22] = tested on: Candida albicans; assay: Induction of apoptosis in Candida albicans ATCC SC5314 cells assessed as necrotic cells at 8 ug/ml incubated for 72 hrs by Annexin V-FITC/PI staining based flow cytometry method (reference value: 3.76%); type: functional; conditions: dose 8 µg/ml
[23] = biological target: Lanosterol 14-alpha demethylase (Candida albicans (strain SC5314 / ATCC MYA-2876) (Yeast), UniProt P10613); assay: Inhibition of CYP51 in Candida albicans ATCC SC5314 incubated for 30 mins using eburicol as substrate in presence of NADPH by HPLC analysis
Chain of Lanosterol 14-alpha demethylase (P10613 whole entry): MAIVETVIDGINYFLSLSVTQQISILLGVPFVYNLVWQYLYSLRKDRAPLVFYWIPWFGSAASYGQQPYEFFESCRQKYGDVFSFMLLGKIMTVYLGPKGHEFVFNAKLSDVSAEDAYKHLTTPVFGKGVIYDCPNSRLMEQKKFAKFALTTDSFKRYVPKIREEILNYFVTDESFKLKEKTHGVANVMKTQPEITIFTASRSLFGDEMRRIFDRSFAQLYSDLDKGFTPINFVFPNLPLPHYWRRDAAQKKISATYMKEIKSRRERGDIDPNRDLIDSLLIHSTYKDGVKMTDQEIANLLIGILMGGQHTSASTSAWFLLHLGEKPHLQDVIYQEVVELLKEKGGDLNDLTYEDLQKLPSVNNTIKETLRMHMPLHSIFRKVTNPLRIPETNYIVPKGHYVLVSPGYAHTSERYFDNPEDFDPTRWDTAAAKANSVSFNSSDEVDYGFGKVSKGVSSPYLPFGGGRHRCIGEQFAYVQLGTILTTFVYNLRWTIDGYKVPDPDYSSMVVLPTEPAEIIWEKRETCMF

[24] = tested on: Candida albicans; assay: Induction of morphological changes in Candida albicans assessed as structural damage in fungal cell wall at 4 ug/ml measured after 48 hrs by TEM analysis; type: functional, organism-based; conditions: dose 4.0 µg/ml
[25] = tested on: Aspergillus fumigatus; assay: Antifungal activity against Aspergillus fumigatus KM8001 assessed as fungal growth inhibition measured after 72 hrs by CLSI protocol based liquid medium dilution method; type: functional
[26] = tested on: Candida albicans; assay: Antifungal activity against Candida albicans ATCC SC5314 assessed as change in lanosterol level at 4 ug/ml incubated for 48 hrs by LC-MS analysis (reference value: 3.7%); type: functional; conditions: dose 4 µg/ml
[27] = tested on: Candida albicans; assay: Antifungal activity against Candida albicans ATCC SC5314 assessed as decrease in ergosterol content at 4 ug/ml incubated for 48 hrs by LC-MS analysis (reference value: 90.6%); type: functional; design: scale not given: the % may be the effect or the level left; conditions: dose 4 µg/ml
[28] = tested on: Candida albicans; assay: Induction of apoptosis in Candida albicans ATCC SC5314 cells assessed as live cells at 8 ug/ml incubated for 72 hrs by Annexin V-FITC/PI staining based flow cytometry method (reference value: 95.56%); type: functional; conditions: dose 8 µg/ml
[29] = biological target: T1, Squalene epoxidase ERG1 (Candida albicans, UniProt Q92206); assay: Inhibition of SE in Candida albicans ATCC SC5314 incubated for 30 mins using squalene as substrate in presence of NADPH by spectrophotometer analysis
T1 sequence (Q92206 whole entry): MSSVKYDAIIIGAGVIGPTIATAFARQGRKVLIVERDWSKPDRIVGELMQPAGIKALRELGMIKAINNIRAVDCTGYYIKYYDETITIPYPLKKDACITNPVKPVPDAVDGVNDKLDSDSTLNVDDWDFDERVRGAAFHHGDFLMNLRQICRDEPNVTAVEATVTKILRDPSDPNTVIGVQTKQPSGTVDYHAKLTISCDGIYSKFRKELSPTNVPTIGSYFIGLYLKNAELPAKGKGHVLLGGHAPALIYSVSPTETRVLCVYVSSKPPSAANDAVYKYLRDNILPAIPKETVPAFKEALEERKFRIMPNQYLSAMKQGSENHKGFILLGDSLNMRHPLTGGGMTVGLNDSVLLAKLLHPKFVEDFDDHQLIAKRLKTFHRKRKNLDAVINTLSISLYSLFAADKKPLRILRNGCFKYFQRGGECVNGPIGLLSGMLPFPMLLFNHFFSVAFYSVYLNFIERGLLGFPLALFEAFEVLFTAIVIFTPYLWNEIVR

Structure (SMILES): CC(C)[C@H](NC(=O)c1cccc2c1OCCO2)C(=O)N[C@@H](Cn1cncn1)c1ccccc1
- Activity [1]: 28.9%
- Activity [2]: Active
- Activity [3]: Non-Toxic
- Activity [4]: Non-Toxic
- Activity [5]: Active
- Activity [6]: Active
- MIC50 [7]: 0.125 µg/mL (≈ 0.278 µM)
- Activity [8]: Active
- MIC50 [9]: 0.25 µg/mL (≈ 0.556 µM)
- Activity [10]: Active
- Activity [11]: 0.41%
- Activity [12]: Non-Toxic
- Activity [13]: 15.8 mmol/L
- Activity [14]: 6.4%
- Activity [15]: Active
- Activity [16]: Active
- Activity [17]: 50.5 IU/L
- Activity [18]: Non-Toxic
- MIC50 [19]: 0.25 µg/mL (≈ 0.556 µM)
- Activity [20]: 27.5%
- Activity [21]: Active
- Activity [22]: 43.31%
- IC50 [23]: 220 nM
- Activity [24]: Active
- MIC50 [25]: 2 µg/mL (≈ 4.45 µM)
- Activity [26]: 16.4%
- Activity [27]: 20.8%
- Activity [28]: 54.5%
- IC50 [29]: 621 nM
